The text below walks through data of ChEMBL document CHEMBL1129698, “Homo-N-nucleosides: Incorporation into oligonucleotides and antiviral activity” (1996).

Assay type in all cases: functional
Experiment [1] deals with Human alphaherpesvirus 1. Nature of the experiment: Compound was tested for the antiviral activity against herpes simplex virus-1 (HSV-1) KOS strain.
In experiment [2] the test system is Human alphaherpesvirus 1. The experiment can be described thus: Compound was tested for the antiviral activity against herpes simplex virus-1 thymidine kinase deficient (HSV-1 TK-) B2006 strain.
Experiment [3] deals with Human alphaherpesvirus 1. The experiment can be described thus: Compound was tested for the antiviral activity against herpes simplex virus-1 thymidine kinase deficient (HSV-1 TK-) VMW 1837 strain.
Experiment [4] concerns Human alphaherpesvirus 2. The experiment can be described thus: Compound was tested for the antiviral activity against herpes simplex virus-2 (HSV-2) G strain.
Experiment [5] is described as follows: Minimum cytotoxic concentration required to cause a microscopically detectable alteration of normal cell morphology.

SMILES strings stand for the structures. ≈ marks a conversion by molar mass, not a printed value.

Consider `NC1=NC(=O)C2N=CN(C[C@H]3C[C@H](O)[C@@H](CO)O3)C2=N1` (stereo not given in full), for which the MIC in experiment [1] is 5 µg/mL (≈ 17.8 µM); in experiment [2], 12 µg/mL (≈ 42.7 µM); in experiment [3], 12 µg/mL (≈ 42.7 µM); in experiment [4], 5 µg/mL (≈ 17.8 µM); in experiment [5], > 400 µg/mL.
For the compound `Nc1nc2c(ncn2COCCO)c(=O)[nH]1` [ACYCLOVIR], the MIC in experiment [1] is 0.02 µg/mL (≈ 0.0888 µM); in experiment [2], 80 µg/mL (≈ 355 µM); in experiment [3], 4 µg/mL (≈ 17.8 µM); in experiment [4] it was 0.03 µg/mL (≈ 0.133 µM); in experiment [5], > 400 µg/mL.
As to `Nc1ncnc2c1ncn2C[C@H]1C[C@H](O)[C@@H](CO)O1`, the MIC in experiment [1] was 20 µg/mL (≈ 75.4 µM); in experiment [2], 10 µg/mL (≈ 37.7 µM); in experiment [3], 8 µg/mL (≈ 30.2 µM); in experiment [4], 6 µg/mL (≈ 22.6 µM); in experiment [5], > 400 µg/mL.
On the same counts, the results for `O=c1[nH]c(=O)n([C@H]2C[C@H](O)[C@@H](CO)O2)cc1/C=C/Br` [BRIVUDINE] are 0.007 µg/mL (≈ 0.021 µM), 20 µg/mL (≈ 60 µM), 30 µg/mL (≈ 90.1 µM), > 100 µg/mL and 200 µg/mL (≈ 600 µM).
